Laboratory results taken from patent EP1043331A1, “BONE-RESORPTIVE CYTOKINE INHIBITOR CONTAINING DIENOGEST AS THE ACTIVE INGREDIENT” (MOCHIDA PHARMACEUTICAL CO., LTD., priority 1997, dated 1999).
Marks after values point to notes of the source that are not given here.

How the values were obtained:
Format in all cases: cell-based, mouse
IL-1β = IL-1β release from murine osteoblast (culture supernatant cytokine assay); settings: 24 hours culture
Experimental: (§1) Under anesthesia with pentobarbital sodium (25 mg/kg, intraperitoneal administration), postcava was cut to bleed and kill the animal to death. Then, bilateral femoral bones were resected. This bone was cut with a pair of bone scissors, to remove the bone marrow with a micro-loop. The inner face of the bone was rubbed off with a sharp blade. The resulting matter was agitated in a 10 % collagenase solution (Nitta gelatin) at 37 °C for 20 minutes, and to the resulting mixture was added a culture medium (an MEM culture medium supplemented with 10 % charcoal-treated bovine fetal serum; manufactured by Nissui Pharmaceutical, Co. Ltd.) prior to centrifugation (300×g, 5 minutes and 20 °C). The resulting cells were dispersed in a fresh culture medium and then inoculated on a plastic culture dish (diameter of 35 mm, Primaria (Falcon)). […] Osteoblast was identified by using alkali phosphatase staining as an osteoblast marker. For recovering osteoblast from an animal after ovariectomy, ovariectomy was carried out at age 11 weeks, and the animal was fed for the following 4 weeks, prior to the same treatment.
(§2) Dienogest as a test substance was dissolved and diluted in dimethylsulfoxide (DMSO, manufactured by Wako Pure Chemical Industries, Ltd.) for use. As a control substance, furthermore, MPA and danazol were used after they were dissolved and diluted in DMSO. DMSO was used as a solvent control.
(§3) The final concentrations of the drug were 10^-11, 10^-10 and 10^-9 M. For experiments, furthermore, three dishes per each group were used.
(§4) Using SMRART ™ (Pharmacia Biotech, Uppsala, Sweden), the supernatant was concentrated by about 10 fold, after the termination of culturing. The level of cytokine in the sample was assayed by using assay kits of murine IL-1β, IL-6 and TNF-α (Cytoscreen™, BioSource International, Camarillo, Calif. CA, USA) and europium-labeled streptoavidin (Pharmacia Biotech).

IL-6 = IL-6 release from murine osteoblast (culture supernatant cytokine assay); settings: 24 hours culture
Experimental: as §1, §2, §3, §4

murine osteoclast = experiment: Pit formation by murine osteoclast on ivory disks; settings: 3 days culture on ivory disk, control 0.16
Experimental: After an ICR mouse of age 13 days was bled to death under anesthesia (pentobarbital sodium), bilateral femoral bones were resected. In an α-MEM culture medium (Gibco), the femoral bones were cut into pieces with a pair of bone scissors for 5 minutes, and the resulting pieces were agitated with a vortex mixer for 30 seconds. The cell suspension was centrifuged (1000 g, 2 min., 15 °C), and the resulting supernatant was discarded. The precipitate was suspended in an α-MEM culture medium, to adjust the suspension to a cell number of 1×10^7 cells/ml.
A purchased ivory piece was processed into a disk of a diameter of 5.5 mm and a thickness of 200 µm, by using a precision low-speed cutter (manufactured by BUEHLER) and a cut blade. The disk was then treated under ultrasonication in distilled water, and was immersed in an α-MEM culture medium (culture medium) supplemented with 10 % bovine fetal serum (Dai-Nippon Pharmaceuticals, Co.) treated with charcoal. The resulting each disk was placed in each well of a 96-well culture plate (Falcon), to which was added 100 µl of the drug solution. The osteoclast suspension was inoculated at 1×10^6 cells(100µl) thereon, for culturing at 37 °C in 5 % CO2/95 % air for 3 days. All the drugs were adjusted to final concentrations of 10^-11, 10^-10 and 10^-9 M. Additionally, five samples per each concentration were experimented.
Absorbency was determined by calculating a phargocytized area on the bone. More specifically, the ivory piece after the treatment with the drugs was wiped with gauze, rinsed with an ultrasonication machine for 30 minutes, and stained with an acid hematoxylin solution (Sigma Chemical Co., Ltd.) for 5 minutes. The piece was then rinsed in distilled water, and the phargocytized absorption area was measured with an image analyzer (Luzex, Nireco) at 100 magnification. Nine different parts were counted per each ivory piece, to calculate the average.

[1] = osteoblast of non-treated mouse, 10^-9 M, control 13.9
[2] = osteoblast of non-treated mouse, 10^-10 M, control 13.9
[3] = osteoblast of non-treated mouse, 10^-11 M, control 13.9
[4] = osteoblast of ovariectomized mouse, 10^-9 M, control 26.3
[5] = osteoblast of ovariectomized mouse, 10^-10 M, control 26.3
[6] = osteoblast of ovariectomized mouse, 10^-11 M, control 26.3
[7] = osteoblast of non-treated mouse, 10^-9 M, control 39.9
[8] = osteoblast of non-treated mouse, 10^-10 M, control 39.9
[9] = osteoblast of non-treated mouse, 10^-11 M, control 39.9
[10] = osteoblast of ovariectomized mouse, 10^-9 M, control 109.0
[11] = osteoblast of ovariectomized mouse, 10^-10 M, control 109.0
[12] = osteoblast of ovariectomized mouse, 10^-11 M, control 109.0

| SMILES | IL-1β (IL-1β; [1]) | IL-1β (IL-1β; [2]) [pg/mL] | IL-1β (IL-1β; [3]) [pg/mL] | IL-1β (IL-1β; [4]) | IL-1β (IL-1β; [5]) | IL-1β (IL-1β; [6]) [pg/mL] | IL-6 (IL-6; [7]) | IL-6 (IL-6; [8]) [pg/mL] | IL-6 (IL-6; [9]) [pg/mL] | IL-6 (IL-6; [10]) | IL-6 (IL-6; [11]) | IL-6 (IL-6; [12]) [pg/mL] | pit formation due to murine osteoclast (phargocytized absorption area) (murine osteoclast; 10^-9 M) | pit formation due to murine osteoclast (phargocytized absorption area) (murine osteoclast; 10^-10 M) | pit formation due to murine osteoclast (phargocytized absorption area) (murine osteoclast; 10^-11 M) |
| --- | --- | --- | --- | --- | --- | --- | --- | --- | --- | --- | --- | --- | --- | --- | --- |
| C#C[C@]1(O)CC[C@H]2[C@@H]3CCC4=Cc5oncc5C[C@]4(C)[C@H]3CC[C@@]21C [Danazol, danazol] | 15.4* pg/ml | 13.8 | 13.6 | 28.1** pg/ml | 26.0 pg/mL | 25.2 | 42.0** pg/ml | 37.7 | 38.9 | 124.0** pg/ml | 109.4 pg/mL | 111.3 | 0.16 | 0.15 | 0.16 |
| C[C@]12CCC3=C4CCC(=O)C=C4CC[C@H]3[C@@H]1CC[C@@]2(O)CC#N [Dienogest, 17 α-cyanomethyl-17β-hydroxy-estra-4,9(10)-dien-3-one] | 12.0** pg/ml | 13.7 | 14.4 | 23.1** pg/ml | 23.8* pg/ml | 26.1 | 32.3** pg/ml | 35.5 | 39.3 | 40.1** pg/ml | 47.7** pg/ml | 94.2 | 0.10** | 0.15 | 0.15 |
| CC(=O)O[C@]1(C(C)=O)CC[C@H]2[C@@H]3C[C@H](C)C4=CC(=O)CC[C@]4(C)[C@H]3CC[C@@]21C [MPA, medroxyprogesterone acetate] | 16.9* pg/ml | 14.4 | 13.3 | 30.2** pg/ml | 25.9 pg/mL | 26.3 | 45.1** pg/ml | 37.6 | 38.7 | 122.5** pg/ml | 109.3 pg/mL | 111.4 | 0.16 | 0.16 | 0.16 |
